Data: the NIST ThermoML archive (doi:10.1021/acs.jced.8b00132)
Several values for one entry are separate records, joined by “and”; a condition that tells them apart may be missing. Equal entries are not always repeated.

Details: Liquid, transient hot wire

O=C(C(F)(F)C(F)(F)F)C(F)(C(F)(F)F)C(F)(F)F [dodecafluoro-2-methylpentan-3-one]
Details | thermal conductivity
191.65 K, 61123 kPa | 0.08784 W/m/K
191.65 K, 67633 kPa | 0.08918 W/m/K
191.65 K, 67642 kPa | 0.08859 W/m/K
191.66 K, 154 kPa | 0.07783 W/m/K
191.66 K, 6412 kPa | 0.07892 W/m/K
191.66 K, 6427 kPa | 0.07902 W/m/K
191.66 K, 13243 kPa | 0.0804 W/m/K
191.66 K, 13255 kPa | 0.08025 W/m/K
191.66 K, 20239 kPa | 0.08175 W/m/K
191.66 K, 20246 kPa | 0.08164 W/m/K
191.67 K, 112 kPa | 0.07744 W/m/K
191.67 K, 147 kPa | 0.07786 W/m/K
191.67 K, 6032 kPa | 0.07883 W/m/K
191.67 K, 9411 kPa | 0.07946 W/m/K
191.67 K, 9418 kPa | 0.07986 W/m/K
191.68 K, 121 kPa | 0.07734 W/m/K
191.68 K, 6013 kPa | 0.07908 W/m/K
192 K, 28272 kPa | 0.08275 W/m/K
192 K, 36150 kPa | 0.084 W/m/K
192 K, 36164 kPa | 0.08417 W/m/K
192 K, 44217 kPa | 0.08526 W/m/K
192 K, 52622 kPa | 0.08646 W/m/K
192 K, 52639 kPa | 0.08637 W/m/K
192 K, 61093 kPa | 0.08779 W/m/K
192 K, 67605 kPa | 0.08855 W/m/K
192.01 K, 28268 kPa | 0.08282 W/m/K
192.01 K, 44219 kPa | 0.08526 W/m/K
192.01 K, 61086 kPa | 0.08772 W/m/K
192.01 K, 67622 kPa | 0.08858 W/m/K
192.04 K, 6436 kPa | 0.07895 W/m/K
192.04 K, 13246 kPa | 0.08024 W/m/K
192.04 K, 13262 kPa | 0.08043 W/m/K
192.04 K, 20234 kPa | 0.08155 W/m/K
192.05 K, 6439 kPa | 0.07899 W/m/K
192.05 K, 20236 kPa | 0.0816 W/m/K
192.06 K, 157 kPa | 0.07749 W/m/K
192.06 K, 162 kPa | 0.07742 W/m/K
192.06 K, 9415 kPa | 0.07961 W/m/K
192.06 K, 9425 kPa | 0.07956 W/m/K
192.07 K, 124 kPa | 0.07716 W/m/K
192.07 K, 6029 kPa | 0.07889 W/m/K
192.07 K, 6037 kPa | 0.07899 W/m/K
192.08 K, 123 kPa | 0.07723 W/m/K
192.39 K, 61059 kPa | 0.08761 W/m/K
192.39 K, 67589 kPa | 0.08872 W/m/K
192.4 K, 44218 kPa | 0.08528 W/m/K
192.4 K, 52626 kPa | 0.08558 W/m/K
192.4 K, 61080 kPa | 0.08772 W/m/K
192.4 K, 67603 kPa | 0.08923 W/m/K
192.41 K, 28286 kPa | 0.08272 W/m/K
192.41 K, 36171 kPa | 0.08404 W/m/K
192.41 K, 44213 kPa | 0.08463 W/m/K
192.41 K, 52617 kPa | 0.08563 W/m/K
192.42 K, 28275 kPa | 0.08201 W/m/K
192.42 K, 36146 kPa | 0.08395 W/m/K
192.45 K, 20243 kPa | 0.08132 W/m/K
192.46 K, 20239 kPa | 0.08136 W/m/K
192.47 K, 13253 kPa | 0.08039 W/m/K
192.47 K, 13262 kPa | 0.08013 W/m/K
192.48 K, 6426 kPa | 0.07848 W/m/K
192.48 K, 6434 kPa | 0.07874 W/m/K
192.49 K, 9414 kPa | 0.0792 W/m/K
192.5 K, 157 kPa | 0.07741 W/m/K
192.5 K, 161 kPa | 0.07715 W/m/K
192.5 K, 6046 kPa | 0.07875 W/m/K and 0.07884 W/m/K
192.5 K, 9410 kPa | 0.07887 W/m/K
192.51 K, 147 kPa | 0.0771 W/m/K
192.52 K, 131 kPa | 0.07714 W/m/K
192.82 K, 67573 kPa | 0.08822 W/m/K
192.82 K, 67584 kPa | 0.08836 W/m/K
192.83 K, 52603 kPa | 0.08551 W/m/K
192.83 K, 61059 kPa | 0.08671 W/m/K
192.83 K, 61067 kPa | 0.08703 W/m/K
192.84 K, 44211 kPa | 0.08516 W/m/K
192.84 K, 52611 kPa | 0.08588 W/m/K
192.85 K, 44221 kPa | 0.08537 W/m/K
192.86 K, 36164 kPa | 0.08389 W/m/K and 0.08381 W/m/K
192.87 K, 28295 kPa | 0.08266 W/m/K
192.87 K, 28317 kPa | 0.08252 W/m/K
192.92 K, 20232 kPa | 0.08125 W/m/K
192.92 K, 20252 kPa | 0.08125 W/m/K
192.94 K, 13254 kPa | 0.08003 W/m/K
192.96 K, 6419 kPa | 0.07805 W/m/K
192.96 K, 6437 kPa | 0.07805 W/m/K
